We go through two compounds from patent US10149838B2, “Small molecule securinine and norsecurinine analogs and their use in inhibiting myeloperoxidase” (MiRx Pharmaceuticals, LLC, priority 2013, dated 2018).

In series [1] the target is T1, MPO (Homo sapiens, UniProt P05164).
T1 sequence (P05164 49-745): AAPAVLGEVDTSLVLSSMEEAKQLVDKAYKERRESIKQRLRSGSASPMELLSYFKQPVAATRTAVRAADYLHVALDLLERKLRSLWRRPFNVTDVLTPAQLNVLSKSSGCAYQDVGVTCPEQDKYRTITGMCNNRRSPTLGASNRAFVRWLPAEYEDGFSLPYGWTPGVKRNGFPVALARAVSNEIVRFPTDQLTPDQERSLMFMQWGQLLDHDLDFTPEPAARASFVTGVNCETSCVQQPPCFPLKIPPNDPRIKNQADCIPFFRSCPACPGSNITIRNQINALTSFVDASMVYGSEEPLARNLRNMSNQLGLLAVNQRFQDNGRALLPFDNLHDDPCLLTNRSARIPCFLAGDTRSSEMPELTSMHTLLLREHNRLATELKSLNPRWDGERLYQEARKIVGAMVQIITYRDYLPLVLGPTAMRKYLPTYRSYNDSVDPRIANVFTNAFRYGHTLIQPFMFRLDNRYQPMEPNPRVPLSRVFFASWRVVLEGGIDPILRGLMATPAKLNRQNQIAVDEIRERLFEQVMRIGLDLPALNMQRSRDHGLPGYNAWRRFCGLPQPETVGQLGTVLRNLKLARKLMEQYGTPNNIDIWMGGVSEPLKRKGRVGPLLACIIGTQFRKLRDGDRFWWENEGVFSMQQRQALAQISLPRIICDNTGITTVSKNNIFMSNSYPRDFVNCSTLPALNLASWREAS
In words: MALDI-TOF analysis of heme and heme/compound conjugate in presence of H2O2. It is filed as binding. More on the design: purchased Cayman Chemical 700170. On the procedure: (§1) Only MPO (red) and H2O2 promoted a shift in the Soret peak, formation of a new band at 630 nm (blue).
To determine the binding motif/active site of MPO and the compound of interest, a computational docking analysis using a 2.5 A crystal structure (PDB id 3ZSO) was performed. The heme ‘m’ in myeloperoxidase contains two ester bonds at the heme 1 and 5-methyls. In addition, a unique sulfonium ion linkage was observed. […] An inhibitory action of the myeloperoxidase is predicted when such covalent links are formed. Especially docking position of 184B unique and have visible effect on the Hisitidine 336 coordinated iron (FIG. 6E). These docking results explain the observed effects of 184B on the soret peak (˜433). Further MALDI-TOF analysis of heme (un conjugated) and heme/184B conjugated (in presence of H2O2) complexes are liberated from protein and analyzed ions with an ˜m/z>1040, which would be the mass of conjugated heme and 184B compare to unconjugated control only heme (m/z˜694) (FIG. 6F).

Series [2] has as its target T1, MPO. In words: Chlorination assay with purified MPO (HOCl formation, APF fluorescence). It is filed as biochemical. Further details: purchased Cayman Chemical 700170. On the procedure: (§2) All Results are representative of duplicate experiments
MPO's catalyzed enzymatic reaction consists of multiple stages (FIG. 3). Chlorination occurs when Complex-I produces hypochlorous acid (HOCl) in the presence of a chloride ion. […] Analogue MA20:
(§3) To determine the mechanism of this inhibition, the MPO enzyme was incubated with MA20 in the presence or absence of H2O2 for a set time and determined the reduction in chlorination activity of the enzyme. Residual activity was measured by diluting the reaction mixture by 150 fold. Incubation with either MA20 or H2O2 had minimal MPO inhibitory activity (approximately a 25-30% reduction in chlorination activity, FIG. 7E).

The test system of the next series is human neutrophils. In words: HOCl production by PMA-stimulated human neutrophils. In kind it is cell-based. To be noted: 0.5 μM MA20, PMA 110 ng/ml 30 min. On the procedure: as §2
The reaction was stopped by 251 μg/ml of catalase and 0.5 μM of MA20, and chlorination activity was measured. […] This effect is strikingly similar to MA20's inhibitory effect on purified MPO (FIG. 7C). […] As such, they prevent the production of HOCl without concomitant release of free radicals.

The target of series [3] is T1, MPO. In words: Oxidation of ascorbate by MPO, H2O2 and chloride. Further details: purchased Cayman Chemical 700170. To be noted: 1.0 μM, chloride. In kind it is biochemical.
Source text: as §2
(§4) To determine whether these analogues are selective for MPO, rather than being a general peroxidase inhibitor, thyroid peroxidase and lactoperoxidase were selected for oxidase evaluation. The effect of MA20 on the halogenation activities of MPO and thyroid peroxidase were compared by following the oxidation of ascorbate in the presence of chloride or iodide.

The next series can be described thus: in vitro. In kind it is in vitro ADME. To be noted: human, microsomes. The text has this:
(§5) The securinine analog MPO inhibitors have favorable in vitro and in vivo toxicity profiles.

For series [4], the target named is T1, MPO. In words: UV/visible heme absorption spectra of MPO with compound/H2O2. In kind it is binding. More on the design: purchased Cayman Chemical 700170. On the procedure: as §1
It was next set about to investigate the molecular target of the analogs (FIG. 6A). Cultured HL60 cells were treated with either Biotin/Biotin-INVMG1 (securinine) (10 μM) for 2 hr and pull-down experiments using streptavidin magnetic beads were used to pulldown bound molecules, followed by SDS-PAGE analysis (FIG. 6B). […] This 80 kDa protein band was excised, digested with trypsin, and the tryptic digests then analyzed using Mass Spectroscopy. […] The proteins bound to streptavidin beads were next separated using SDS-PAGE and incubated then with anti-human MPO antibody. […] To further confirm the binding of INVMG1 to MPO, the MPO enzyme was incubated with and without INVMG184B/H2O2, and analyzed absorption maxima using UV/visible.

The next series deals with Skin fibroblast (BJ1). In kind it is cell-based.
Source text: as §5

For series [5], the system named is mouse embryonic fibroblast (MEF). It is filed as cell-based.
Source text: as §5

The next series concerns HEK293. It is filed as cell-based.
Source text: as §5

In series [6] the target is T1, MPO. The series is described as follows: Residual chlorination activity of MPO after incubation with or without H2O2, 150 fold dilution. It is filed as biochemical. Further details: purchased Cayman Chemical 700170. To be noted: FIG. 7E. On the procedure:
as §2, §3

A further series has as its target T2, thyroid peroxidase (Homo sapiens, UniProt P07202).
T2 sequence (P07202 19-933): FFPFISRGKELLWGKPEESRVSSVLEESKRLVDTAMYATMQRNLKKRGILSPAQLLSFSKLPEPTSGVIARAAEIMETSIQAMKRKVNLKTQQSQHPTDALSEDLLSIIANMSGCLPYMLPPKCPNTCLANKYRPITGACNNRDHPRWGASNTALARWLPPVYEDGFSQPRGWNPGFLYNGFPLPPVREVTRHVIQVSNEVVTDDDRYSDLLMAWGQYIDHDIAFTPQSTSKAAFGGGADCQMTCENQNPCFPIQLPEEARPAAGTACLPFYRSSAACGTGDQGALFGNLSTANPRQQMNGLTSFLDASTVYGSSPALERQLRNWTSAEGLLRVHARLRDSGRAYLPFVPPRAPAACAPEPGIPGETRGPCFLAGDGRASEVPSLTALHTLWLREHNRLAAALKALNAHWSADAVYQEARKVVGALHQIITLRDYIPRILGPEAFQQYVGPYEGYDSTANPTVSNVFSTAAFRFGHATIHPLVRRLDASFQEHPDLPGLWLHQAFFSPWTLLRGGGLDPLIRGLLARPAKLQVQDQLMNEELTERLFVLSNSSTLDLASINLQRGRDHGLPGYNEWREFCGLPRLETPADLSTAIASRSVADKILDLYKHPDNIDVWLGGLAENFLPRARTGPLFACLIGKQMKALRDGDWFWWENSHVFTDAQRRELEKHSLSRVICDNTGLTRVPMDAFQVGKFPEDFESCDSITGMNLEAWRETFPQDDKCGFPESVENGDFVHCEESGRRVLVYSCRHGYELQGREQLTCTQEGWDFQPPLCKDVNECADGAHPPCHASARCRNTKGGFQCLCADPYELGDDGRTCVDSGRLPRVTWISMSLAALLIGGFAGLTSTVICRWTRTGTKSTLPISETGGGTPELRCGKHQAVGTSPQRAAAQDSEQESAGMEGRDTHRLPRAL
In words: Oxidation of ascorbate by thyroid peroxidase and iodide (iodination activity). In kind it is biochemical. Particulars: 10 μM, iodide.
Source text: as §2, §4

`O=C1C=C2CC(S(=O)(=O)c3ccccc3)[C@@H]3C[C@@]2(O1)[C@H]1CCCCN31` (some centres unmarked) [INVS-MG-184B]: on MPO [1], the “nature of interaction with MPO (heme conjugate)” value was “irreversible”.
As to `O=C1C=C2C(S(=O)(=O)c3ccccc3)C[C@@H]3C[C@@]2(O1)C1CCCCN13` (some centres unmarked) [MA20], the “MPO inhibition activity assessed by chlorination activity” value at MPO [2] (FIG. 7B-C) is reported as “highest MPO inhibition activity”. The “inhibition potency (chlorination) versus chloride ion concentration” value against MPO [2] (FIG. 7D) is on record as “decreased with increasing concentrations of the chloride ion”. The “mechanism of MPO inhibition” value at MPO [2] (preliminary data) is “suicidal substrate”. In the series with human neutrophils, the “PMA-induced HOCl production by neutrophils” value is reported as “significantly inhibited”. Besides, the “oxidation of ascorbate by MPO” value on MPO [3] is reported as “completely blocked”. Further, the half-life (commonly how long it takes for the measured level to halve) in the series “in vitro” is roughly 80 min. Besides, the “binding with the heme prosthetic group (Soret ~433 nm, peak ~630 nm)” value on MPO [4] is listed as “direct binding”. Also, the “toxicity (cell survival)” value (in the series with Skin fibroblast (BJ1); in series [5]; in the series with HEK293) was “significantly lower level of toxicity” in each case. The “MPO activity after addition of compound and H2O2” value at MPO [6] (MA20 and H2O2) is on record as “completely inhibited”. Also, the “reduction in chlorination activity” value on MPO [6] (incubation with MA20 alone, without H2O2) is reported as 25-30%. The “effect on the iodination activity of thyroid peroxidase” value on thyroid peroxidase is listed as “negligible”.
